Consider four molecules from paper PMC3434217, “Specificity Determinants of the Silkworm Moth Sex Pheromone” (PLoS ONE, 2012).

What all share (assay type): cell-based
Experiment [1] concerns the target T1, BmorOR1 (Bombyx mori, UniProt Q5WA61).
T1 construct: gene BmOR-1; full-length; with BmorOrco
T1 sequence (Q5WA61 1-430): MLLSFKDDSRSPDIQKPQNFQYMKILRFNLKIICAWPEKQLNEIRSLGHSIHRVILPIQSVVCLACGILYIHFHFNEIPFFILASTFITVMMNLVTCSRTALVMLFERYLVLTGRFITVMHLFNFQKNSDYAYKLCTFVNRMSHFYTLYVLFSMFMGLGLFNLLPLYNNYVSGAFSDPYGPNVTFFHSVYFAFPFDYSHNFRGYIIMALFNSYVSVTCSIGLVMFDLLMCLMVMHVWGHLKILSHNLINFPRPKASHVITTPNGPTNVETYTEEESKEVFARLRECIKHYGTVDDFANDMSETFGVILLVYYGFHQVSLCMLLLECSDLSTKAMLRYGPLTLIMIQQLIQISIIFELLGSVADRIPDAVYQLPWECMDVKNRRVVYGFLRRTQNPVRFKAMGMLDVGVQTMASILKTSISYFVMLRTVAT
T1 sequence (Q7YT34 1-472 partner): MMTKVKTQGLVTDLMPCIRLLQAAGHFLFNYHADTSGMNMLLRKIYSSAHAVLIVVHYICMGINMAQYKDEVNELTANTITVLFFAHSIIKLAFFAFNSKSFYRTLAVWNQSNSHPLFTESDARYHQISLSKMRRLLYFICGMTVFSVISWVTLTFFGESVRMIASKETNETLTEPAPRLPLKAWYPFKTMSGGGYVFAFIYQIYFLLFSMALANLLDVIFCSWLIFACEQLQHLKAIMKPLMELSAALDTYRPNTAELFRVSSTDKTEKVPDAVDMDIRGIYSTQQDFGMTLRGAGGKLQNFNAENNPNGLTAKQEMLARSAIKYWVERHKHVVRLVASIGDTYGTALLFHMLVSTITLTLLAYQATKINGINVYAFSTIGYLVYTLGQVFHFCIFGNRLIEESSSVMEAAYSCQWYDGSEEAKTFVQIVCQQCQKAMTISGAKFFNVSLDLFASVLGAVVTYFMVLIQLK
Briefly: two-electrode voltage clamp in Xenopus oocytes expressing BmorOR1 and BmorOrco, dose-response.

In experiment [2] the target is T1, BmorOR1. Briefly: two-electrode voltage clamp in Xenopus oocytes expressing BmorOR1 and BmorOrco (perfusion).
In experiment [3] the target is T1, BmorOR1. Briefly: two-electrode voltage clamp in Xenopus oocytes expressing BmorOR1 and BmorOrco (injection, source dose).

As for `CCC/C=C\C=C\CCCCC#CCCCO` [compound 10], the EC50 at BmorOR1 [1] is 17 µM.

`CCC/C=C\C=C\CCCC/C=C\CCCO` [compound 11, (4Z,10E,12Z)-hexadecatrien-1-ol] showed an EC50 on BmorOR1 [1] of 13 µM.

At BmorOR1 [2], `CCC/C=C\C=C\CCCCCCCCCO` [compound 1, (10E,12Z)-hexadecadien-1-ol] had a half-maximal effective concentration (EC50) of 0.0454 µM.

The molecule `CCC/C=C\C=C\CCCCCCCCC=O` [bombykal] yielded an EC50 at BmorOR1 [3] of 9.6 µM.
